According to patent US20250188030A1, “Biphenyl and Phenylpyridine Compounds” (Pfizer Inc., priority 2023, published 2025):
Where two headings read alike, the source gives them in different places.

Legend:
H3K9AC (HT1080 cells) = assay: H3K9AC Sandwich ELISA Assay in HT1080 cells (KAT2A primary cell-based screening assay); set-up: species or system Human
How it was run: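 Acetylated H3K9 quantified by luminescent sandwich ELISA (total H3 capture, H3K9ac detection) on HCl lysates of HT1080 cells. Cells had 24 h compound exposure at 37 °C, top concentration 10 µM, 10-point 3-fold series, 0.1% DMSO; IC50 from four-parameter fitting.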

MM.1S cells = assay: MM1.S 10 Day Proliferation Assay (CellTiter-Glo); type: cell-based, Human
How it was run: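 MM.1S cells, 500/well in ultra-low-attachment plates, were pre-incubated 16 h, then exposed to a 10-point 1:3 dilution series (top 10 μM final, 0.1% DMSO) for 10 days at 37 °C, with compound-containing medium refreshed at day 5. Viability was read by CellTiter-Glo luminescence; IC50 came from four-parameter fit.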

KAT2A = KAT2A (Homo sapiens (Human), UniProt Q92830); assay: KAT2A acetyltransferase biochemical assay (RapidFire mass spectrometry, AcCoA to CoA)
[1] = Homo sapiens, HT-1080, H3K9AC sandwich ELISA
[2] = read-out: KAT2A Ki at 1 μM AcCoA, 5 μM H3 1-21 peptide, 0.5 nM KAT2A, 90-minute reaction
[3] = KAT2A Ki at 1 μM AcCoA, 5 μM H3 1-21 peptide, 0.5 nM KAT2A, 90-minute reaction

KAT2A, sequence (Q92830 whole entry): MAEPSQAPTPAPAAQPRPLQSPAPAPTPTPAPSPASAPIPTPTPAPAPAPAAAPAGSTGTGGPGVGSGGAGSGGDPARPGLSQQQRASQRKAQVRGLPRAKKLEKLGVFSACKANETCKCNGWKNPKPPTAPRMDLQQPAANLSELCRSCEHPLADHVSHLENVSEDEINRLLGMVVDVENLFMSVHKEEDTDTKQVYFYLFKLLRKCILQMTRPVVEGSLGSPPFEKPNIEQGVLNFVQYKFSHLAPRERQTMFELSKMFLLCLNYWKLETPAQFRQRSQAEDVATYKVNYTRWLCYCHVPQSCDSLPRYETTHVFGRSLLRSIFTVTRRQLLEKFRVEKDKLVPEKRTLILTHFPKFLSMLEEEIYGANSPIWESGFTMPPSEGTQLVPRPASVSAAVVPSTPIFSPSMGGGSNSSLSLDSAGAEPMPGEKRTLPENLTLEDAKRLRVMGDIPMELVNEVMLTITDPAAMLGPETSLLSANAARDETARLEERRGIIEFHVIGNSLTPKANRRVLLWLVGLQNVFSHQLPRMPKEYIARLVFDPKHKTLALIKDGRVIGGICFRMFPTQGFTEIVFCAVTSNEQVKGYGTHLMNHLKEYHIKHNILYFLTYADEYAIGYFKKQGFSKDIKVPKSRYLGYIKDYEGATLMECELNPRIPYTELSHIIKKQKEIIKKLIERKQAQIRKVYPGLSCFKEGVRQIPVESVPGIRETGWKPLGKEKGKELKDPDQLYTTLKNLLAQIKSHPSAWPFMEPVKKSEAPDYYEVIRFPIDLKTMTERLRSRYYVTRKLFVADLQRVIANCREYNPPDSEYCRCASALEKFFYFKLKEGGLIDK

Structure (SMILES) | IC50 (H3K9AC (HT1080 cells); [1]) [nM] | IC50 (MM.1S cells; Homo sapiens, MM1.S, 240 h) [nM] | Ki (KAT2A; [2]) [nM] | Ki (KAT2A; [3]) [nM] | IC50 (H3K9AC (HT1080 cells); H3K9AC sandwich ELISA) [nM] | IC50 (MM.1S cells) [nM]
CC(C)(C(=O)NS(=O)(=O)C1CC1)c1ccc(O[C@@H]2CC[C@@H](NC(=O)[C@]3(F)CNC4(CCC4)C3)C2)c(-c2cccc(F)c2C2CCC2)c1 (single isomer, unassigned) [Example B12] | 1.4 | 14.1 | 0.18 | – | – | –
CC(C)S(=O)(=O)NC(=O)C(C)(C)c1ccc(O[C@@H]2CC[C@@H](NC(=O)[C@@]3(F)CNC(C)(C)C3)C2)c(-c2cccc(F)c2C2CCC2)c1 (single isomer, unassigned) [Example B17] | – | – | 0.1 | – | 3.49 | 41.7
CCS(=O)(=O)NC(=O)Cc1ccc(O[C@@H]2CC[C@@H](NC(=O)[C@@]3(F)CNC4(CCCC4)C3)C2)c(-c2ccccc2C(C)C)c1 (single isomer, unassigned) [Example C63] | 2.2 | 5.2 | 0.08 | – | – | –
CC1(C)CNC[C@](F)(C(=O)N[C@@H]2CC[C@@H](Oc3ccc(C(C)(C)C(=O)NS(C)(=O)=O)cc3-c3cccc(F)c3C3CCC3)C2)C1 (single isomer, unassigned) [Example C37] | 3 | 11 | 0.06 | – | – | –
CCS(=O)(=O)NC(=O)C(C)(C)c1ccc(O[C@@H]2CC[C@@H](NC(=O)[C@@]3(F)CNC(C)(C)C3)C2)c(-c2cccc(F)c2C2CCC2)c1 (single isomer, unassigned) [Example B14] | – | – | 1.83 | – | 49.1 | 553
CCc1c(F)cccc1-c1cc(C(C)(C)C(=O)NS(=O)(=O)C(C)C)ccc1O[C@@H]1CC[C@@H](NC(=O)[C@@]2(F)CNCC(C)(C)C2)C1 (single isomer, unassigned) [Example C45] | – | 52.4 | 0.11 | – | 9.6 | –
CC1(C)CNCC(F)(C(=O)N[C@@H]2CC[C@@H](Oc3ccc(C(=O)O)cc3-c3cccc(F)c3C3CCC3)C2)C1 (single isomer, unassigned) [Example A38] | – | 18.3 | 0.02 | – | 4 | –
CCc1c(F)cccc1-c1cc(CC(=O)NS(=O)(=O)C(C)C)ccc1O[C@@H]1CC[C@@H](NC(=O)[C@@]2(F)CNC3(CCC3)C2)C1 [Example C58, (7S)-N-[(1R,3R)-3-({2′-ethyl-3′-fluoro-5-[2-oxo-2-(propane-2-sulfonamido)ethyl][1,1′-biphenyl]-2-yl}oxy)cyclopentyl]-7-fluoro-5-azaspiro[3.4]octane-7-carboxamide] | 3.4 | 8.1 | 0.11 | – | – | –
CC1(C)CNC[C@](F)(C(=O)N[C@@H]2CC[C@@H](Oc3ccc(C(C)(C)C(=O)NS(=O)(=O)C4(C)CC4)cc3-c3cccc(F)c3C3CCC3)C2)C1 (single isomer, unassigned) [Example C35] | 3.5 | 7.8 | 0.14 | – | – | –
CC(C)S(=O)(=O)NC(=O)C(C)(C)c1ccc(O[C@@H]2CC[C@@H](NC(=O)[C@@]3(F)CNC4(CCC4)C3)C2)c(-c2ccccc2C2CCC2)c1 (single isomer, unassigned) [Example C48] | 4.7 | 18.9 | 0.21 | – | – | –
CCS(=O)(=O)NC(=O)Cc1ccc(O[C@@H]2CC[C@@H](NC(=O)C3(F)CNCC4(CCC4)C3)C2)c(-c2cccc(F)c2C2CCC2)c1 (single isomer, unassigned) [Example C60] | – | 5 | 0.04 | – | 3.2 | –
CC(C)S(=O)(=O)NC(=O)C(C)(C)c1cnc(O[C@@H]2CC[C@@H](NC(=O)[C@@]3(F)CNC4(CCC4)C3)C2)c(-c2cccc(F)c2C2CCC2)c1 [Example C65, (7S)-N-[(1R,3R)-3-({3-(2-cyclobutyl-3-fluorophenyl)-5-[2-methyl-1-oxo-1-(propane-2-sulfonamido)propan-2-yl]pyridin-2-yl}oxy)cyclopentyl]-7-fluoro-5-azaspiro[3.4]octane-7-carboxamide] | 3.8 | 31.8 | 0.16 | – | – | –
O=C(O)Cc1ccc(O[C@@H]2CC[C@@H](NC(=O)[C@@]3(F)CNC4(CCC4)C3)C2)c(-c2cccc(F)c2C2CCC2)c1 (single isomer, unassigned) [Example A7] | 4.45 | 30.9 | 1.25 | – | – | –

The remaining lines, values ahead:

IC50 (H3K9AC (HT1080 cells); [1]) [nM] | IC50 (MM.1S cells; Homo sapiens, MM1.S, 240 h) [nM] | Ki (KAT2A; [2]) [nM] | Ki (KAT2A; [3]) [nM] | IC50 (H3K9AC (HT1080 cells); H3K9AC sandwich ELISA) [nM] | IC50 (MM.1S cells) [nM] | Structure (SMILES)
18.1 | 69.3 | 33.9 | – | – | – | CCN(C)S(=O)(=O)NC(=O)c1cccc(O[C@@H]2CC[C@@H](NC(=O)[C@@H]3CC(C)(C)CN3C)C2)c1-c1cccc(F)c1C1CCC1 (atropisomer, axis not shown) [Example I14, N-[(1R,3R)-3-{[(1ψ)-2′-cyclobutyl-6-{[ethyl(methyl)sulfamoyl]carbamoyl}-3′-fluoro[1,1′-biphenyl]-2-yl]oxy}cyclopentyl]-1,4,4-trimethyl-L-prolinamide]
9.38 | 56.9 | – | 1.68 | – | – | CN1CC(C)(C)C[C@H]1C(=O)N[C@H]1C[C@H](COc2ccc(C(C)(C)C(=O)NS(C)(=O)=O)cc2-c2cccc(F)c2C2CCC2)C1 [Example G2, N-[(1r,3S)-3-{[(2′-cyclobutyl-3′-fluoro-5-{1-[(methanesulfonyl)amino]-2-methyl-1-oxopropan-2-yl}[1,1′-biphenyl]-2-yl)oxy]methyl}cyclobutyl]-1,4,4-trimethyl-L-prolinamide]
71.2 | 625 | – | 9.11 | – | – | CN1CC(C)(C)C[C@H]1C(=O)N[C@H]1C[C@H](COc2ccc(C(C)(C)C(=O)O)cc2-c2cccc(F)c2C2CCC2)C1 [Example F2, 2-[2′-cyclobutyl-3′-fluoro-6-({(1S,3r)-3-[(1,4,4-trimethyl-L-prolyl)amino]cyclobutyl}methoxy)[1,1′-biphenyl]-3-yl]-2-methylpropanoic acid]
8.5 | 94.5 | 2.48 | – | – | – | O=C(O)Cc1ccc(OC[C@H]2C[C@H](NC(=O)[C@@]3(F)CNC4(CCC4)C3)C2)c(-c2cccc(F)c2C2CCC2)c1 (single isomer, unassigned) [Example F3, (2′-cyclobutyl-3′-fluoro-6-{[(1r,3r)-3-{[(7ξ)-7-fluoro-5-azaspiro[3.4]octane-7-carbonyl]amino}cyclobutyl]methoxy}[1,1′-biphenyl]-3-yl)acetic acid]
25.9 | 171 | 8.31 | – | – | – | C[C@H](C(=O)O)c1ccc(O[C@@H]2CC[C@@H](NC(=O)[C@@H]3CC(C)(C)CN3C)C2)c(-c2cccc(F)c2C2CCC2)c1 (single isomer, unassigned) [Example D14]
9.5 | 36.2 | 0.17 | – | – | – | CCS(=O)(=O)NC(=O)C(C)(C)c1ccc(OC[C@H]2C[C@H](NC(=O)[C@@]3(F)CNC4(CCC4)C3)C2)c(-c2cccc(F)c2C2CCC2)c1 (single isomer, unassigned) [Example G5, (7Rξ)-N-{(1r,3r)-3-[({2′-cyclobutyl-5-[1-(ethanesulfonamido)-2-methyl-1-oxopropan-2-yl]-3′-fluoro[1,1′-biphenyl]-2-yl}oxy)methyl]cyclobutyl}-7-fluoro-5-azaspiro[3.4]octane-7-carboxamide]
63.8 | 359 | 6.29 | – | – | – | CN1CC2(CCCC2)C[C@H]1C(=O)N[C@@H]1CC[C@@H](Oc2cccc(C(=O)NS(C)(=O)=O)c2-c2cccc(F)c2C2CCC2)C1 (atropisomer, axis not shown) [Example I10, (3ξ)-N-[(1R,3R)-3-({(1ψ)-2′-cyclobutyl-3′-fluoro-6-[(methanesulfonyl)carbamoyl][1,1′-biphenyl]-2-yl}oxy)cyclopentyl]-2-methyl-2-azaspiro[4.4]nonane-3-carboxamide]
99 | 203 | 53 | – | – | – | CN1CC(C)(C)C[C@H]1C(=O)N[C@@H]1CC[C@@H](Oc2ccc(C(C)(C)C(=O)NS(C)(=O)=O)cc2-c2ccccc2CC(F)(F)F)C1 [Example E6, N-[(1R,3R)-3-{[5-{1-[(methanesulfonyl)amino]-2-methyl-1-oxopropan-2-yl}-2′-(2,2,2-trifluoroethyl)[1,1′-biphenyl]-2-yl]oxy}cyclopentyl]-1,4,4-trimethyl-L-prolinamide]
112 | 385 | 42.8 | – | – | – | CC(C)c1ccccc1-c1c(CC(=O)O)cccc1O[C@@H]1CC[C@@H](NC(=O)[C@@H]2CC(C)(C)CN2C)C1 (atropisomer, axis not shown) [Example H4, [(1ψ)-2′-(propan-2-yl)-6-({(1R,3R)-3-[(1,4,4-trimethyl-L-prolyl)amino]cyclopentyl}oxy)[1,1′-biphenyl]-2-yl]acetic acid]
24.5 | 238 | 25 | – | – | – | CN1CC(C)(C)C[C@H]1C(=O)N[C@@H]1CC[C@@H](Oc2cccc(C(=O)NS(=O)(=O)N3CCC3)c2-c2cccc(F)c2C2CCC2)C1 (atropisomer, axis not shown) [Example I13, N-[(1R,3R)-3-({(1ψ)-6-[(azetidine-1-sulfonyl)carbamoyl]-2′-cyclobutyl-3′-fluoro[1,1′-biphenyl]-2-yl}oxy)cyclopentyl]-1,4,4-trimethyl-L-prolinamide]
59 | 88.7 | 13.6 | – | – | – | CN1CC(C)(C)C[C@H]1C(=O)N[C@@H]1CC[C@@H](Oc2cccc(CC(=O)NS(N)(=O)=O)c2-c2ccccc2C2CCC2)C1 (atropisomer, axis not shown) [Example I5, N-[(1R,3R)-3-({(1ψ)-2′-cyclobutyl-6-[2-oxo-2-(sulfamoylamino)ethyl][1,1′-biphenyl]-2-yl}oxy)cyclopentyl]-1,4,4-trimethyl-L-prolinamide]
